Measured values taken from patent US8008303B2, “Biphenyl derivatives and their use in treating hepatitis C” (AstraZeneca AB, priority 2005, dated 2011).
Like-named read-outs stand apart in the source and are kept apart here.

What was measured:
[1] = test system: HCV replicon cells Huh 9B; type: cell-based
[2] = test system: HCV replicon cells Huh 9B; test: HCV replicon assay (luciferase readout); type: cell-based
How it was run: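 Compounds, made up at twice final strength (final DMSO 1%), were added to subgenomic replicon cells one day after plating. Incubation then ran 72 h at 37 °C, 5% CO2, without G418. Replication was quantified as firefly luciferase luminescence in lysed cells, with cytotoxicity assessed on a duplicate clear plate.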

[3] = concentration reducing total cell area by 50% relative to DMSO controls, methylene blue, absorbance 620 nm, 72 h incubation
[4] = Hepatitis C virus, 72 h, concentration reducing replicon level (luciferase activity) by 50% vs untreated cell control, 72 h incubation

Compound	TD50 [1, 3]	IC50 [2, 4] [nM]	TD50 [1]	IC50 [2] [nM]
COc1ccccc1C(=O)Nc1ccc(-c2cccc(C(=O)Nc3ccc(N4CCOCC4)cc3)c2)c(C)c1 [Example 115, 4′-(2-Methoxy-benzoylamino)-2′-methyl-biphenyl-3-carboxylic acid (4-morpholin-4-yl-phenyl)-amide]	* (* < 50 μM)	1000 to 5000		
Cc1ccc(NC(=O)c2ccc(N3CCOCC3)cc2)cc1-c1ccc(C(=O)Nc2ccc(Br)c(Cl)c2)cc1 [Example 90, 2′-Methyl-5′-(4-morpholin-4-yl-benzoylamino)-biphenyl-4-carboxylic acid (4-bromo-3-chloro-phenyl)-amide]	** (** > 50 μM)	> 5000		
Cc1ccc(NC(=O)c2ccc(N3CCOCC3)cc2)cc1-c1ccc(C(=O)Nc2ccc3[nH]c(C(F)(F)F)nc3c2)cc1 [Example 85, 2′-Methyl-5′-(4-morpholin-4-yl-benzoylamino)-biphenyl-4-carboxylic acid (2-trifluoromethyl-1H-benzoimidazol-5-yl)-amide]	** (** > 50 μM)	1000 to 5000		
CCC1(c2ccc(NC(=O)c3ccc(C)c(-c4ccc(C(=O)Nc5ccc(CN6CCS(=O)(=O)CC6)cc5)cc4)c3)cc2)CCC(=O)NC1=O (centres unmarked) [Example 138, 6-Methyl-biphenyl-3,4′-dicarboxylic acid 4′-{[4-(1,1-dioxo-1lambda*6*-thiomorpholin-4-ylmethyl)-phenyl]-amide} 3-{[4-(3-ethyl-2,6-dioxo-piperidin-3-yl)-phenyl]-amide}]			* (key: * < 50 μM; ** > 50 μM)	< 1000
COc1ccc(C(=O)Nc2ccc(N3CCOCC3)cc2)cc1-c1ccc(C(=O)Nc2ccc(CN3CCN(S(=O)(=O)C(C)C)CC3)cc2)cc1 [Example 258, 6-Methoxy-biphenyl-3,4′-dicarboxylic acid 3-[(4-morpholin-4-yl-phenyl)-amide] 4′-({4-[4-(propane-2-sulfonyl)-piperazin-1-ylmethyl]-phenyl}-amide)]	* (* < 50 μM)			< 1000
CN1CCN(Cc2ccc(NC(=O)c3ccc(-c4cc(NC(=O)C5CCCCC5)ccc4Cl)cc3)cc2)CC1 [Example 249, 2′-Chloro-5′-(cyclohexanecarbonyl-amino)-biphenyl-4-carboxylic acid [4-(4-methyl-piperazin-1-ylmethyl)-phenyl]-amide]	* (* < 50 μM)	1000 to 5000		
Cc1ccc(C(=O)Nc2ccc(N3CCOCC3)cc2)cc1-c1ccc(NC(=O)CNC(=O)c2ccccc2)cc1 [Example 105, 4′-(2-Benzoylamino-acetylamino)-6-methyl-biphenyl-3-carboxylic acid (4-morpholin-4-yl-phenyl)-amide]	** (** > 50 μM)	1000 to 5000		
COc1ccc(C(=O)Nc2ccc(N3CCOCC3)cc2)cc1-c1ccc(C(=O)Nc2ccc(CN3CCN(S(=O)(=O)N(C)C)CC3)cc2)cc1 [Example 259, 6-Methoxy-biphenyl-3,4′-dicarboxylic acid 4′-{[4-(4-dimethylsulfamoyl-piperazin-1-ylmethyl)-phenyl]-amide} 3-[(4-morpholin-4-yl-phenyl)-amide]]			* (key: * < 50 μM; ** > 50 μM)	< 1000
COc1ccccc1C(=O)Nc1ccc(-c2cccc(C(=O)Nc3ccc(CN4CCS(=O)(=O)CC4)cc3)c2)c(C)c1 [Example 134, 4′-(2-Methoxy-benzoylamino)-2′-methyl-biphenyl-3-carboxylic acid [4-(1,1-dioxo-1lambda*6*-thiomorpholin-4-ylmethyl)-phenyl]-amide]	* (* < 50 μM)	1000 to 5000		
Cc1ccc(C(=O)Nc2ccc(N3CCOCC3)cc2)cc1-c1ccc(C(=O)Nc2cccc(C(F)(F)F)c2)cc1 [Example 23, 6-Methyl-biphenyl-3,4′-dicarboxylic acid 3-[(4-morpholin-4-yl-phenyl)-amide] 4′-[(3-trifluoromethyl-phenyl)-amide]]			* (key: * < 50 μM; ** > 50 μM)	1000 to 5000
CCCS(=O)(=O)N1CCN(Cc2ccc(NC(=O)c3ccc(-c4cc(C(=O)Nc5ccc(N6CCOCC6)cc5C)ccc4OC)cc3)cc2)CC1 [Example 260, 6-Methoxy-biphenyl-3,4′-dicarboxylic acid 3-[(2-methyl-4-morpholin-4-yl-phenyl)-amide] 4′-({4-[4-(propane-1-sulfonyl)-piperazin-1-ylmethyl]-phenyl}-amide)]	* (* < 50 μM)			< 1000
Cc1cccc(CNC(=O)c2ccc(-c3cc(NC(=O)c4ccc(N5CCOCC5)cc4)ccc3C)cc2)c1 [Example 89, 2′-Methyl-5′-(4-morpholin-4-yl-benzoylamino)-biphenyl-4-carboxylic acid 3-methyl-benzylamide]	** (** > 50 μM)	1000 to 5000		
COc1ccc(S(=O)(=O)Nc2ccc(N3CCOCC3)cc2)cc1-c1ccc(C(=O)Nc2ccc(CN3CCN(S(C)(=O)=O)CC3)cc2)cc1 [Example 245, 2′-Methoxy-5′-(4-morpholin-4-yl-phenylsulfamoyl)-biphenyl-4-carboxylic acid [4-(4-methanesulfonyl-piperazin-1-ylmethyl)-phenyl]-amide]	* (* < 50 μM)	< 1000		
Cc1ccc(C(=O)Nc2ccc(N3CCOCC3)cc2)cc1-c1ccc(C(=O)Nc2cccc(-c3ccn(C)n3)c2)cc1 [Example 26, 6-Methyl-biphenyl-3,4′-dicarboxylic acid 4′-{[3-(1-methyl-1H-pyrazol-3-yl)-phenyl]-amide} 3-[(4-morpholin-4-yl-phenyl)-amide]]			** (key: * < 50 μM; ** > 50 μM)	> 5000
Cc1ccc(C(=O)Nc2ccc(N3CCOCC3)cc2)cc1-c1ccc(C(=O)Nc2ccc(CN3CCOCC3)cc2)cc1 [Example 74, 6-Methyl-biphenyl-3,4′-dicarboxylic acid 4′-[(4-morpholin-4-ylmethyl-phenyl)-amide] 3-[(4-morpholin-4-yl-phenyl)-amide]]			* (key: * < 50 μM; ** > 50 μM)	1000 to 5000
CCCS(=O)(=O)N1CCN(Cc2ccc(NC(=O)c3ccc(-c4cc(C(=O)Nc5ccc(N6CCOCC6)c(F)c5)ccc4Cl)cc3)cc2)CC1 [Example 264, 6-Chloro-biphenyl-3,4′-dicarboxylic acid 3-[(3-fluoro-4-morpholin-4-yl-phenyl)-amide] 4′-({4-[4-(propane-1-sulfonyl)-piperazin-1-ylmethyl]-phenyl}-amide)]	* (* < 50 μM)			< 1000
Cc1ccc(NC(=O)C2CC2)cc1-c1ccc(C(=O)Nc2ccc(-n3cncn3)cc2)cc1 [Example 218, 5′-(Cyclopropanecarbonyl-amino)-2′-methyl-biphenyl-4-carboxylic acid (4-[1,2,4]triazol-1-yl-phenyl)-amide]	* (* < 50 μM)	< 1000		
COc1ccc(NC(=O)c2ccc(-c3cc(C(=O)Nc4ccc(N5CCOCC5)cc4)ccc3C)cc2)cn1 [Example 2, 6-Methyl-biphenyl-3,4′-dicarboxylic acid 4′-[(6-methoxy-pyridin-3-yl)-amide] 3-[(4-morpholin-4-yl-phenyl)-amide]]			** (key: * < 50 μM; ** > 50 μM)	1000 to 5000
Cc1ccc(-c2noc(C3CCCCC3)n2)cc1-c1ccc(C(=O)Nc2ccc(CN3CCS(=O)(=O)CC3)cc2)cc1 [Example 206, 5′-(5-Cyclohexyl-[1,2,4]oxadiazol-3-yl)-2′-methyl-biphenyl-4-carboxylic acid [4-(1,1-dioxo-1lambda*6*-thiomorpholin-4-ylmethyl)-phenyl]-amide]	* (* < 50 μM)	> 5000		
